Test results as given in PMC4433173, “Five hTRPA1 Agonists Found in Indigenous Korean Mint, Agastache rugosa” (PLoS ONE, 2015).
Like-named read-outs stand apart in the source and are kept apart here.

Tests used:
Type in all cases: cell-based
hTRPA1 [1] = target: T1, hTRPA1 (Homo sapiens, UniProt O75762); experiment: Cytosolic Ca2+ measurement with Fluo-4 AM on a fluorescence plate reader (FlexStation III), ΔRFU dose-response; settings: for Hill slope of Ca2+ concentration-response curve: n = 7; for agonist type at hTRPA1 (full / partial): judged from maximum ΔRFU versus AITC
T1 construct: expressed in transfected cells
T1 sequence (O75762 whole entry): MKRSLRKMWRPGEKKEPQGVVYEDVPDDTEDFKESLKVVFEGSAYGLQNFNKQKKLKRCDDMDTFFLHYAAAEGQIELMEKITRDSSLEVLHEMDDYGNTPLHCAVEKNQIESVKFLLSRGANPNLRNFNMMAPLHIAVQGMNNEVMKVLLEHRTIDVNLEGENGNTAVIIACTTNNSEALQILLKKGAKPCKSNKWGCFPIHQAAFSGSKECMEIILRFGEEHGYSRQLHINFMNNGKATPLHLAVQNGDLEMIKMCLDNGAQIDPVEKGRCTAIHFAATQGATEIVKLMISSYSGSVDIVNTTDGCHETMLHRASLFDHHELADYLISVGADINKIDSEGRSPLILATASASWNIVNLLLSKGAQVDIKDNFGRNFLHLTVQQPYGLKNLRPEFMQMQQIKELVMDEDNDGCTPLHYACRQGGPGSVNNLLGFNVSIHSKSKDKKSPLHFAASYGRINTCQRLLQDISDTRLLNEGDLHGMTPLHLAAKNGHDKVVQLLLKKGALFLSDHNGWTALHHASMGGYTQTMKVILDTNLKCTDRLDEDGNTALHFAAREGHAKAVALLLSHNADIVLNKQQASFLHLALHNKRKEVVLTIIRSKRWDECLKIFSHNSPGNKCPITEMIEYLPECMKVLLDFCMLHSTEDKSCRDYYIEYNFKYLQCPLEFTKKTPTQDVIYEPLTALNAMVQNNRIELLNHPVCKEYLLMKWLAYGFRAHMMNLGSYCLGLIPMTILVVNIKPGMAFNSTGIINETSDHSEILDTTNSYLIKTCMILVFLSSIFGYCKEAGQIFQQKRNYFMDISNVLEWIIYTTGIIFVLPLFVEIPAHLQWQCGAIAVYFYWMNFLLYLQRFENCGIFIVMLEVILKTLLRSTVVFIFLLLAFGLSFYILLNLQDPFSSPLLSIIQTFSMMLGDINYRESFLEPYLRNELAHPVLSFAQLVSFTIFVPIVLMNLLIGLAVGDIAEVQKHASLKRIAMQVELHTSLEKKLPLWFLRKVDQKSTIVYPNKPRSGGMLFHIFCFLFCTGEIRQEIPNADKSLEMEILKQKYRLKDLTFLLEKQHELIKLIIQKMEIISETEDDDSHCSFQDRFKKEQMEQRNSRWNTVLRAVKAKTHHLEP

hTRPA1 [2] = target: T1, hTRPA1; experiment: Fura-2 AM ratiometric Ca2+ imaging of hTRPA1-Flp-In 293 stable cells; settings: for activation of hTRPA1 (cytosolic Ca2+ influx): extract 300 μg/mL, AITC 30 μM, 4-allylanisole 1 mM; for activation of hTRPA1 (cytosolic Ca2+ influx) / block of Ca2+ influxes induced by the five active compounds in hTRPA1 cells: p-anisaldehyde 1 mM, L-carveol 300 μM, trans-p-methoxycinnamaldehyde 100 μM, methyl eugenol 300 μM; for block of Ca2+ influxes induced by the five active compounds in hTRPA1 cells / inhibition of Ca2+ responses induced by AITC and the A.rugosa extract in hTRPA1 cells: antagonist: RR 30 μM, HC-030031 100 μM; for block of Ca2+ influxes induced by the five active compounds in hTRPA1 cells: agonists 4-allylanisole 1 mM; for inhibition of Ca2+ responses induced by AITC and the A.rugosa extract in hTRPA1 cells: hTRPA1-Flp-In 293 stable cells
hTRPV1 = target: T2, hTRPV1 (Homo sapiens, UniProt Q8NER1); experiment: Fura-2 AM ratiometric Ca2+ imaging of HEK293T cells transiently expressing hTRPV1 (responding cells %); settings: for activation of hTRPV1 (cytosolic Ca2+ influx, responding cells): extract 300 μg/mL, capsaicin 0.1 μM, ten compounds at 0.1-1 mM; for inhibition of Ca2+ responses induced by the A.rugosa extract in hTRPV1 cells: antagonist: RR 30 μM, CPZ 5 μM, HEK293T cells transiently expressing hTRPV1
T2 construct: host or cells: HEK293T cells, transient transfection with pEAK10-hTRPV1
T2 sequence (Q8NER1 whole entry): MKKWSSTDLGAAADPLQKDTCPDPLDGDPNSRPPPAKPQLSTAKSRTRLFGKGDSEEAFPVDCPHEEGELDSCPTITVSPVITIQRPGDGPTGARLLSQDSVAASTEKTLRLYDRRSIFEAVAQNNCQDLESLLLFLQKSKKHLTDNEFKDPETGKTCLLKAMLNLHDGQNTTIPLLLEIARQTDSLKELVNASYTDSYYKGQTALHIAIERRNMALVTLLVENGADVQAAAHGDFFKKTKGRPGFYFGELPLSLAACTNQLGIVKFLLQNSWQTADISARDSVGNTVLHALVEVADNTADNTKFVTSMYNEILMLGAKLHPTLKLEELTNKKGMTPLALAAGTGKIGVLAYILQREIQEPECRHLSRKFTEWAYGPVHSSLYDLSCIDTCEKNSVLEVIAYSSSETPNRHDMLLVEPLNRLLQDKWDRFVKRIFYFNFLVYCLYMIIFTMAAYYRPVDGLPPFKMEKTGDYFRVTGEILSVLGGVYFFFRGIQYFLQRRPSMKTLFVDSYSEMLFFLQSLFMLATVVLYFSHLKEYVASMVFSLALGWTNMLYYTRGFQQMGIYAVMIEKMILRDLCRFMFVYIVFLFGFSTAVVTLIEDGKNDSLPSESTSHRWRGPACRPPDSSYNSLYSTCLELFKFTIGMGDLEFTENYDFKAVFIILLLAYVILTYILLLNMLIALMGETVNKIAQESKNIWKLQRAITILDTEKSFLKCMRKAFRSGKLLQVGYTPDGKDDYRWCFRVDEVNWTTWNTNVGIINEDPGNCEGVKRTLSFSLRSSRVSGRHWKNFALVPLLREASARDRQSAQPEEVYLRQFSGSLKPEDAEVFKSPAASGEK

hTRPA1 [3] = target: T1, hTRPA1; experiment: Whole-cell patch clamp recording of hTRPA1 currents; settings: for induction of hTRPA1 inward currents: holding -70 mV, 30 s application, hTRPA1-Flp-In 293 stable cells and HEK293T cells transiently expressing hTRPA1, AITC 30 μM, 4-allylanisole 3 mM, p-anisaldehyde 6 mM, L-carveol 1.8 mM, methyl eugenol 900 μM, trans-p-methoxycinnamaldehyde 1 mM
Description: For the transient expression of hTRPA1, HEK293T cells (ATCC: CRL-11268) cultured at 37°C in DMEM supplemented with 10% FBS and 1% penicillin/streptomycin (Invitrogen) were transfected using Lipofectamine 2000 (Invitrogen) and 0.1μg of cDNA encoding tetrameric red fluorescence protein (DsRed) was co-transfected as a marker for successfully transfected cells. The hTRPA1expressing plasmid was generously given to us from Kyeongjin Kang (Sungkyunkwan University School of Medicine, Suwon, Korea). The next day, cells were plated onto poly-L-lysine (0.1 mg/ml, Sigma-Aldrich) coated chips, and the fluorescent cells were studied within 2 days after transfection.
Cells were voltage clamped in the whole-cell recording configuration at room temperature (22–25°C). The resistance of electrodes pulled from glass micropipette capillaries (Sutter Instrument Co., Novato, CA, USA) was 2–2.5 MΩ with >60% compensation of series resistance errors. Fast and slow capacitances were compensated before application of the test pulse. Membrane currents were recorded using a HEKA EPC-10 amplifier with pulse software (HEKA Elektronik, Lambrecht, Germany). The pipette solution used for recording hTRPA1 currents contained 140 mM KCl, 5 mM MgCl2, 10 mM HEPES, 0.1 mM 1,2-bis(2-aminophenoxy)ethane-N,N,N',N'-tetraacetic acid (BAPTA), 3 mM Na2ATP, and 0.1 mM Na3GTP (adjusted to pH 7.4 with KOH). The external Ringer’s solution used for recording hTRPA1 currents contained 160 mM NaCl, 5 mM KCl, 1 mM MgCl2, 2 mM EGTA, 10 mM glucose, and 10 mM HEPES (adjusted to pH 7.4with NaOH). hTRPA1 currents were recorded by holding the cell at -70 mV. The following reagents were obtained: BAPTA, Na2ATP, Na3GTP, and EGTA (Sigma-Alrich), HEPES (Calbiochem, San Diego, CA, USA), and other chemicals (Merck, Township, NJ, USA).

[4] = hTRPA1-Flp-In 293 stable cells, Fluo-4 AM
[5] = hTRPA1-Flp-In 293 stable cells, Fluo-4 AM, ΔRFU, Hill fit, seven independent experiments, mean ± SEM, read-out: EC50 of Ca2+ response

SMILES	block of Ca2+ influxes induced by the five active compounds in hTRPA1 cells (hTRPA1 [2])	inhibition of Ca2+ responses induced by AITC and the A.rugosa extract in hTRPA1 cells (hTRPA1 [2])	inhibition of Ca2+ responses induced by the A.rugosa extract in hTRPV1 cells (hTRPV1)	block of hTRPA1 currents evoked by AITC and five compounds (hTRPA1 [3]; 30 μM RR, pre-incubation 30 s before second application of compounds)	Hill slope of Ca2+ concentration-response curve (hTRPA1 [1]; [4])	EC50 (hTRPA1 [1]; [5]) [µM]	agonist type at hTRPA1 (full / partial) (hTRPA1 [1])	activation of hTRPA1 (cytosolic Ca2+ influx) (hTRPA1 [2])	activation of hTRPV1 (cytosolic Ca2+ influx, responding cells) (hTRPV1)	induction of hTRPA1 inward currents (hTRPA1 [3])	EC50 (hTRPA1 [1]) [µM]	efficacy (maximum ΔRFU) relative to that of AITC (hTRPA1 [1]; [4]) [%]
COc1ccc(/C=C/C=O)cc1 [trans-p-methoxycinnamaldehyde]	–	–	–	–	2.2±0.7	29.8 ± 14.9	almost full agonists	activated hTRPA1	did not activate hTRPV1	induced inward currents	–	–
COc1cc(CNC(=O)CCCC/C=C/C(C)C)ccc1O [capsaicin, reference compound]	–	–	–	–	–	–	–	–	significantly stimulated	–	–	–
C=C(C)[C@@H]1CC=C(C)C(O)C1 (stereo partly drawn) [L-carveol]	–	–	–	–	2.9±0.5	–	almost full agonists	activated hTRPA1	did not activate hTRPV1	induced inward currents	189 ± 26.8	–
C=CCc1ccc(OC)c(OC)c1 [methyl eugenol]	–	–	–	–	1.4±0.3	160 ± 21.9	almost full agonists	activated hTRPA1	did not activate hTRPV1	induced inward currents	–	–
COc1ccc(C=O)cc1 [p-anisaldehyde]	–	–	–	–	2.0±0.5	546 ± 73	partial agonists	activated hTRPA1	did not activate hTRPV1	induced inward currents	–	64.2
C=CCN=C=S [AITC, allyl isothiocyanate, reference compound]	–	–	–	–	1.6±0.5	–	–	successfully activated	–	induced inward currents	–	–
C=CCc1ccc(OC)cc1 [4-allylanisole]	–	–	–	–	1.7±0.3	1540 ± 316	partial agonists	activated hTRPA1	did not activate hTRPV1	induced inward currents	–	59.9
Oc1cc2c(cc1O)CN(C(=S)NCCc1ccc(Cl)cc1)CCC2 [CPZ, capsazepine, reference compound]	–	–	inhibited	–	–	–	–	–	–	–	–	–

The next lines start with results.

block of Ca2+ influxes induced by the five active compounds in hTRPA1 cells (hTRPA1 [2])	inhibition of Ca2+ responses induced by AITC and the A.rugosa extract in hTRPA1 cells (hTRPA1 [2])	inhibition of Ca2+ responses induced by the A.rugosa extract in hTRPV1 cells (hTRPV1)	block of hTRPA1 currents evoked by AITC and five compounds (hTRPA1 [3]; 30 μM RR, pre-incubation 30 s before second application of compounds)	SMILES	Hill slope of Ca2+ concentration-response curve (hTRPA1 [1]; [4])	EC50 (hTRPA1 [1]; [5]) [µM]	agonist type at hTRPA1 (full / partial) (hTRPA1 [1])	activation of hTRPA1 (cytosolic Ca2+ influx) (hTRPA1 [2])	activation of hTRPV1 (cytosolic Ca2+ influx, responding cells) (hTRPV1)	induction of hTRPA1 inward currents (hTRPA1 [3])	EC50 (hTRPA1 [1]) [µM]	efficacy (maximum ΔRFU) relative to that of AITC (hTRPA1 [1]; [4]) [%]
mostly blocked	inhibited	inhibited	completely blocked	N.N.N.N.N.N.N.N.N.N.N.N.N.N.[Cl-].[Cl-].[Cl-].[Cl-].[Cl-].[Cl-].[O-2].[O-2].[Ru+3].[Ru+3].[Ru+4] [RR, ruthenium red, reference compound]	–	–	–	–	–	–	–	–
mostly blocked	inhibited	–	–	CC(C)c1ccc(NC(=O)Cn2cnc3c2c(=O)n(C)c(=O)n3C)cc1 [HC-030031, reference compound]	–	–	–	–	–	–	–	–
